Square brackets hold non-standard residues; d marks the D form. Peptide text beside a SMILES is read from it. Hyp = O=C(O)[C@@H]1C[C@@H](O)CN1; pGlu = O=C1CC[C@@H](C(=O)O)N1
Tests used:
Ae. aegypti NPYLR1 = biological target: T1, Ae. aegypti NPYLR1 (Aedes aegypti, UniProt U5N0U1); test: HEK293T cell-based calcium imaging assay, Ae. aegypti NPYLR1; settings: for EC50: HEK293T cells transiently co-transfected with receptor and murine Gqα15, Fura-2 calcium imaging, eight responding cells per plate, three independent transfections, normalized to highest response
T1 sequence (U5N0U1 1-529): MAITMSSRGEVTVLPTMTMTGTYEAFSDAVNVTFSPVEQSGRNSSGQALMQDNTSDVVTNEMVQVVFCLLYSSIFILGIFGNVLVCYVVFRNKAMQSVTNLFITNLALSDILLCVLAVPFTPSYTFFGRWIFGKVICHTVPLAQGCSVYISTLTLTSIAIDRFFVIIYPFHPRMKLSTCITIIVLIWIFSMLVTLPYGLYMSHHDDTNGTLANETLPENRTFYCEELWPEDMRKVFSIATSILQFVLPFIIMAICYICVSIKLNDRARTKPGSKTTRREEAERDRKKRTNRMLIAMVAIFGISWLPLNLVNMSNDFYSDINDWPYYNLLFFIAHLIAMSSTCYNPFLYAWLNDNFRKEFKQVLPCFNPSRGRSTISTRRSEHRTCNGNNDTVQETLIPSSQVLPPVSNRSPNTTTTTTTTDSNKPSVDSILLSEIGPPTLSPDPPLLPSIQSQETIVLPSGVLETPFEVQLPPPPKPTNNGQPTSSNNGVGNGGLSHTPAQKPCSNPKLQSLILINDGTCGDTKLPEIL
Procedure: The variant alleles of NPYLR1 (alleles A–D) and NPYLR7 (alleles A–B) were tested in the cell-based assay as follows: NPYLR1A, NPYLR7A, and NPYLR7B were tested against the entire panel of peptides. NPYLR1B, NPYLR1C, and NPYLR1D were tested against Head Peptide-I and sNPF-3 only.

Ae. aegypti NPYLR7 = test: HEK293T cell-based calcium imaging assay, Ae. aegypti NPYLR7; design: species or system Aedes aegypti; settings: HEK293T + murine Gqα15, Fura-2 calcium imaging; NPYLR7B allele responded, NPYLR7A did not
Procedure: (§2) HEK293T cells were cultured using standard protocols in a Thermo Scientific FORMA Series II – Water Jacketed CO2 incubator (Waltham, MA, USA). Lipofectamine 2000 (Invitrogen) was used for transient transfection of 1 µg pME18S>Candidate receptor and 1 µg pME18S>murine Gqα15 [14]. Transfected cells were loaded with the calcium sensitive dye Fura-2 (Invitrogen) according to product instructions. Cells were imaged on a Nikon Eclipse TE-2000-U microscope (Melville, NY, USA) using fluorescent excitation from a Lambda DG-4 (Sutter Instruments Co., Novato, CA, USA). Bath application of ∼300 µl solutions containing peptides diluted in Ringer's solution (0.14 M NaCl, 5.6 mM KCl, 5 mM HEPES, 2 mM pyruvic acid, 2 mM CaCl2, 2 mM MgCl2, 0.15% Glucose, 1.25 mM KH2PO4, pH 7.4) were delivered using a diaphragm pump (Gilson Minipuls3, Middleton, WI, USA) with real-time recording and analysis in Metafluor software (Version 7.1.2.0; Molecular Devices, Sunnyvale, CA, USA). Data from a complete peptide dilution series were collected from eight responding cells within each plate of three independent transfections. Data were normalized by setting the highest fluorescent response within each experiment to 100%.
NPYLR1B, NPYLR1C, and NPYLR1D were tested against Head Peptide-I and sNPF-3 only. […]

[1] = system: Ae. aegypti female mosquitoes; test: Host-seeking behavior in uniport olfactometer after peptide injection; format: in vivo, Aedes aegypti; settings: non-blood-fed females, 200 nl of 4 and 10 mM peptide injected into abdomen, tested after one hour; n = 6, ~20 females per trial
Excerpt: The uniport olfactometer was custom built by Vadim Sherman in the Rockefeller University High Energy Physics Instrument Shop. Approximately 15-25 female mosquitoes aged 5 to 14 days were placed within loaders, which are small plastic cylinders with mesh covering both openings and a sliding door on one end obtained from the World Health Organization Vector Control Research Unit ([…], Malaysia). […] were attached to one end of a 1 m long plastic tube ([…]) that led to an “attraction trap” (14 cm long, 5 cm diameter), followed by a sealed chamber into which a human volunteer inserted a hand or forearm (see image in Figure 1A for the configuration with a hand stimulus). Humidified room air was carbon-filtered (Donaldson Ultrac-A, Bloomington, MN), supplemented to a final concentration of 5% CO2 using flow-meters (Cole Parmer, catalogue #023-92-ST, Vernon Hills, IL), and passed over the hand or forearm of the volunteer into the olfactometer at 3.8 L/min. Mosquito loaders were attached to the olfactometer and given 5 minutes to acclimatize to air-flow prior to a 5 minute host-seeking test. Mosquitoes were scored as attracted if they flew upwind through the 1 m tube and into the “attraction trap” within the allotted time. Solutions of Head Peptide-I, sNPF-3 and Head Peptide-I [[…]] were dissolved in saline (0.1M NaCl, 4 mM KCl, 2 mM CaCl2) at a concentration of 4 and 10 mM for injection. ∼20 female mosquitoes aged 5 to 14 days were anesthetized on ice for 3 min, moved individually onto a chill-plate (BioQuip catalogue #1429, Rancho Dominguez, CA, USA), and injected with 200 nl of desired solution using a Drummond Nanoject II (Drummond catalogue # 3-000-204, Broomall, PA, USA) attached to 3.5'' needles (Drummond, catalogue #3-000-203-G/X) shaped on a needle puller (Sutter Instruments Co., Model P-97). Solutions were injected into the abdomen by piercing the second abdominal […] from the ovipositor. Injected mosquitoes were placed in loaders and allowed one hour to recover from injection before being tested for host-seeking behavior in the uniport olfactometer.

[2] = system: Ae. aegypti female mosquitoes; settings: earlier report; cited from earlier work
Procedure: At least two mechanisms for host-seeking inhibition have been proposed. First, abdominal distension triggered by blood ingestion is communicated through the ventral nerve cord to inhibit host attraction for approximately 24 hours [7](Figure 1B). Second, a humoral substance discovered in hemolymph at 48 hours after a blood meal is capable of suppressing host-seeking behavior when injected into non-blood-fed females [4](Figure 1B).

D.mel-sNPFR [3] = biological target: T2, D.mel-sNPFR (Drosophila melanogaster, UniProt Q9VW75); test: HEK293T cell-based calcium imaging assay, D.mel-sNPFR; settings: HEK293T + murine Gqα15, Fura-2 calcium imaging
T2 sequence (Q9VW75 1-600): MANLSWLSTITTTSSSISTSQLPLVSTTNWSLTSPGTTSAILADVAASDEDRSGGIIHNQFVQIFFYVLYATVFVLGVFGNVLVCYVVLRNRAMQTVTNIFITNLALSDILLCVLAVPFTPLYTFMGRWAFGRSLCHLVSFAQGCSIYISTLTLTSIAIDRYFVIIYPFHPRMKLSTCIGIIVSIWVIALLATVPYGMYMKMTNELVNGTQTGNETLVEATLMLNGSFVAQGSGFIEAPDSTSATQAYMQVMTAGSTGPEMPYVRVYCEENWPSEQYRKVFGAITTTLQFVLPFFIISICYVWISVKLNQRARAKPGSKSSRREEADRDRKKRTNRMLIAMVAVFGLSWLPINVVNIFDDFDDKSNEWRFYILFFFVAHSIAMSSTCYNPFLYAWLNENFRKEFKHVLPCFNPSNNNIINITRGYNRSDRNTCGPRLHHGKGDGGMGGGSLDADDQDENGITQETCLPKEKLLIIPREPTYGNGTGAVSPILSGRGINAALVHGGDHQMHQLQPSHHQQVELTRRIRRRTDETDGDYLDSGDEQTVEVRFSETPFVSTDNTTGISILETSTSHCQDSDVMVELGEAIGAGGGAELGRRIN
Procedure: as §2
We also used human Neuropeptide Y (NPY) and Peptide YY (PYY) [23](Figure 2B). […]

A.gam-sNPFR = biological target: T3, A.gam-sNPFR (Anopheles gambiae, UniProt A0SIF2); settings: earlier reports, not this paper's assay; cited from earlier work
T3 sequence (A0SIF2 1-575): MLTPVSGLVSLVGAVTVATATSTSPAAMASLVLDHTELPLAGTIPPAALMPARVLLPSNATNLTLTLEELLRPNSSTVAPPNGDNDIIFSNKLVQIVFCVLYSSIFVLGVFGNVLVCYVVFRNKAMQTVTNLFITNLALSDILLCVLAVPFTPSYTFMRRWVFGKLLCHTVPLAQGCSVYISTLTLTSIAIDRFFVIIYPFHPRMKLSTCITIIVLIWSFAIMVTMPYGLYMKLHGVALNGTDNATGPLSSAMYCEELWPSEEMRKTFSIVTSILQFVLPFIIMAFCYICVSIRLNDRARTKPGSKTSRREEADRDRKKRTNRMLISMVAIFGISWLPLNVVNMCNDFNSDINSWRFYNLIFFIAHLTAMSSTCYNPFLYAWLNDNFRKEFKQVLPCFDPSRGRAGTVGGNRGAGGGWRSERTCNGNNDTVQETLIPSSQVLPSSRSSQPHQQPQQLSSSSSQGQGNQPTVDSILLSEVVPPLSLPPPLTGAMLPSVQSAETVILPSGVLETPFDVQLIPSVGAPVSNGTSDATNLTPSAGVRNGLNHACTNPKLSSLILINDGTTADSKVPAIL
Excerpt: (§1) Ae. aegypti NPYLR1 is homologous to the sNPF receptors (sNPFR) of D. melanogaster, [24] and An. gambiae. […] We have no explanation for these discrepancies, but note that since D ...

D.mel-sNPFR [4] = biological target: T2, D.mel-sNPFR; settings: earlier reports, not this paper's assay; cited from earlier work
Excerpt: as §1

Molecule	EC50 (Ae. aegypti NPYLR1) [nM]	Host-seeking behavior (percent attraction to human host stimuli) after injection [1]	Host-seeking behavior activity of injected peptide [2]	also measured
CC(C)C[C@H](NC(=O)[C@H](CCCNC(=N)N)NC(=O)[C@H](CCC(N)=O)NC(=O)[C@H](CO)NC(=O)[C@@H]1CCCN1C(=O)[C@H](C)N)C(=O)N[C@@H](CCCNC(=N)N)C(=O)N[C@@H](Cc1c[nH]c2ccccc12)C(N)=O [sNPF-3] (H-APSQRLRW-NH2; N-terminus assumed)	75	inhibited host-seeking behavior	–	Sensitivity of NPYLR1 to sNPF-3 relative to Head Peptide-I (Ae. aegypti NPYLR1; cell-based assay): ten times more sensitive; EC50 (Ae. aegypti NPYLR7): 6000 nM
pERPhPSLKTRC [Head Peptide-I [Cys10]]	–	had no effect	inactive	Calcium response of NPYLR1 (Ae. aegypti NPYLR1; concentrations up to 50 µM, HEK293T + murine Gqα15, Fura-2): no response
CC(C)C[C@H](NC(=O)[C@H](CCCNC(=N)N)NC(=O)[C@H](CC(C)C)NC(=O)[C@H](CO)NC(=O)[C@@H]1CCCN1C(=O)[C@@H](N)CO)C(=O)N[C@@H](CCCNC(=N)N)C(=O)N[C@@H](Cc1ccccc1)C(N)=O [sNPF-1(4-11)] (H-SPSLRLRF-NH2)	44	–	–	–
CC(C)C[C@H](NC(=O)[C@H](CCCNC(=N)N)NC(=O)[C@H](CC(C)C)NC(=O)[C@H](CO)NC(=O)[C@@H]1CCCN1C(=O)[C@H](CO)NC(=O)[C@H](CCCNC(=N)N)NC(=O)[C@@H](NC(=O)[C@H](C)NC(=O)[C@@H](N)CCCCN)C(C)C)C(=O)N[C@@H](CCCNC(=N)N)C(=O)N[C@@H](Cc1ccccc1)C(N)=O [sNPF-1] (H-KAVRSPSLRLRF-NH2; N-terminus assumed)	55	–	–	EC50 (Ae. aegypti NPYLR7): 634 nM
CC(C)C[C@H](NC(=O)[C@H](CCCNC(=N)N)NC(=O)[C@H](CC(C)C)NC(=O)[C@H](CCC(N)=O)NC(=O)[C@@H]1CCCN1C(=O)[C@H](C)N)C(=O)N[C@@H](CCCNC(=N)N)C(=O)N[C@@H](Cc1ccccc1)C(N)=O [sNPF-2+4] (H-APQLRLRF-NH2)	35	–	–	–
CC(C)C[C@H](NC(=O)[C@H](CO)NC(=O)[C@@H]1C[C@@H](O)CN1C(=O)[C@@H]1CCCN1C(=O)[C@H](CCCNC(=N)N)NC(=O)[C@@H]1CCC(=O)N1)C(=O)N[C@@H](CCCCN)C(=O)N[C@H](C(=O)N[C@@H](CCCNC(=N)N)C(=O)N[C@@H](Cc1ccccc1)C(N)=O)[C@@H](C)O [Head Peptide-I] ([pGlu]RP[Hyp]SLKTRF-NH2)	823	inhibition of host-seeking behavior	sufficient to inhibit host-seeking behavior	EC50 (D.mel-sNPFR [3]): 1000 nM
CC(C)C[C@H](NC(=O)[C@H](CO)NC(=O)[C@@H]1CCCN1C(=O)[C@@H]1CCCN1C(=O)[C@H](CCCNC(=N)N)NC(=O)[C@@H]1CCC(=O)N1)C(=O)N[C@@H](CCCCN)C(=O)N[C@H](C(=O)N[C@@H](CCCNC(=N)N)C(=O)N[C@@H](Cc1ccccc1)C(N)=O)[C@@H](C)O [Head Peptide-III] ([pGlu]RPPSLKTRF-NH2)	954	–	behaviorally inactive	Sensitivity of An. gambiae sNPFR to Head Peptide-III (A.gam-sNPFR): lack sensitivity; Sensitivity of D. melanogaster sNPFR to Head Peptide-III (D.mel-sNPFR [4]): lack sensitivity
